ChEMBL document CHEMBL1201862, “PubChem BioAssay data set” (2004)
The source made the active and inactive calls.

How the values were obtained:
[1] = THP-1 cell cytotoxicity, dose response, cytotoxicity control for non-replicating M. tuberculosis project (AID 489025); type: functional
[2] = HepG2 cell cytotoxicity, dose response, cytotoxicity control for non-replicating M. tuberculosis project (AID 489018); type: functional; details: Mycobacterium tuberculosis
[3] = biological target: T1, Ubiquitin-conjugating enzyme E2 N (Homo sapiens, UniProt P61088); type: functional
T1 sequence (P61088 whole entry): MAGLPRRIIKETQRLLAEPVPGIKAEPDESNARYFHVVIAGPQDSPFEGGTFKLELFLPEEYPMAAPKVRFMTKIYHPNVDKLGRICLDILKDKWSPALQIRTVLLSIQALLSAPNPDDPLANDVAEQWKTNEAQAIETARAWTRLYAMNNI

[4] = Vero E6 cell cytotoxicity, dose response, cytotoxicity control for non-replicating M. tuberculosis project, secondary assay (AID 492998); type: functional, VeroE6; details: Vero C1008
[5] = cells; type: functional
[6] = biological target: T2, Insulin-degrading enzyme (Homo sapiens, UniProt P14735); assay: activators of recombinant IDE enzyme, dose response, counter-screen for IDE activator project, biochemical, fluorescence polarization (AID 588681)
T2 sequence (P14735 whole entry): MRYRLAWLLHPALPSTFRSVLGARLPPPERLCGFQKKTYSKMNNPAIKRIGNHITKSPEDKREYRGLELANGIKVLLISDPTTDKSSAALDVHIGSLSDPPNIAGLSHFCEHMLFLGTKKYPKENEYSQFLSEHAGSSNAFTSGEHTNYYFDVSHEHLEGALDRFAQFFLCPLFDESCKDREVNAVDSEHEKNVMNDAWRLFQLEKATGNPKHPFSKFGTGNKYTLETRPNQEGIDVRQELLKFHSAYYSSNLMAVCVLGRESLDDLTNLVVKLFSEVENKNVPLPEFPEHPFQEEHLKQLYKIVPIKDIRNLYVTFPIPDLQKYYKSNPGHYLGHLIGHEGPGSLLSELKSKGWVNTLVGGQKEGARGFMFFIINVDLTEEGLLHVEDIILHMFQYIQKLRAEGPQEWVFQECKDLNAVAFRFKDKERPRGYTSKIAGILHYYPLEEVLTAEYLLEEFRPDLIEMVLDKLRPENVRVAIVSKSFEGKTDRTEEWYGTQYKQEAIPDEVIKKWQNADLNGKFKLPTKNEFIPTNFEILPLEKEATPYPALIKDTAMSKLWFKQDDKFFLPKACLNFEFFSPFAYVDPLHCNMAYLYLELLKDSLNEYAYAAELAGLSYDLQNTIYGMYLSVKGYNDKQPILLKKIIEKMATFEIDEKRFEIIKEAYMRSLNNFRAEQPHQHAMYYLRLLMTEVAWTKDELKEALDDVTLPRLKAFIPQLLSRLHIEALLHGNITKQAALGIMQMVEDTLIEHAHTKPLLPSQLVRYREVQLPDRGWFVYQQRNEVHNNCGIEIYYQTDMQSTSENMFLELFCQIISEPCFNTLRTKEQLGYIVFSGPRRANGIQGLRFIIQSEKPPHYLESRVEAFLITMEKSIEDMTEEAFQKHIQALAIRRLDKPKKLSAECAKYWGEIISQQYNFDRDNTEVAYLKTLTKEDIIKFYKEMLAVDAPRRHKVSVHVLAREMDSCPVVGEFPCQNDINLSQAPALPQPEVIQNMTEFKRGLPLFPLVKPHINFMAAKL

[7] = biological target: T2, Insulin-degrading enzyme; assay: activators of endogenous IDE in HEK cells, dose response, cell-based, fluorescence polarization (AID 588439); type: functional
[8] = tested on: HEK293; assay: HEK cell cytotoxicity by LDH release, dose response, cytotoxicity control for IDE activator project, fluorescence, HEK cells (AID 588440); type: functional, cell-based; details: Homo sapiens;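 also: cytotoxicity by LDH release measuring loss of membrane integrity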
[9] = tested on: HEK293; assay: optical interference in Abeta FP readout, dose response, artefact control for IDE activator project, biochemical, fluorescence polarization (AID 588442); type: functional, cell-based; details: Homo sapiens
[10] = biological target: T3, Methionyl-tRNA synthetase, putative (Trypanosoma brucei brucei, UniProt Q38C91); type: functional, Trypanosoma brucei brucei strain 927/4 GUTat10.1
T3 sequence (Q38C91 whole entry): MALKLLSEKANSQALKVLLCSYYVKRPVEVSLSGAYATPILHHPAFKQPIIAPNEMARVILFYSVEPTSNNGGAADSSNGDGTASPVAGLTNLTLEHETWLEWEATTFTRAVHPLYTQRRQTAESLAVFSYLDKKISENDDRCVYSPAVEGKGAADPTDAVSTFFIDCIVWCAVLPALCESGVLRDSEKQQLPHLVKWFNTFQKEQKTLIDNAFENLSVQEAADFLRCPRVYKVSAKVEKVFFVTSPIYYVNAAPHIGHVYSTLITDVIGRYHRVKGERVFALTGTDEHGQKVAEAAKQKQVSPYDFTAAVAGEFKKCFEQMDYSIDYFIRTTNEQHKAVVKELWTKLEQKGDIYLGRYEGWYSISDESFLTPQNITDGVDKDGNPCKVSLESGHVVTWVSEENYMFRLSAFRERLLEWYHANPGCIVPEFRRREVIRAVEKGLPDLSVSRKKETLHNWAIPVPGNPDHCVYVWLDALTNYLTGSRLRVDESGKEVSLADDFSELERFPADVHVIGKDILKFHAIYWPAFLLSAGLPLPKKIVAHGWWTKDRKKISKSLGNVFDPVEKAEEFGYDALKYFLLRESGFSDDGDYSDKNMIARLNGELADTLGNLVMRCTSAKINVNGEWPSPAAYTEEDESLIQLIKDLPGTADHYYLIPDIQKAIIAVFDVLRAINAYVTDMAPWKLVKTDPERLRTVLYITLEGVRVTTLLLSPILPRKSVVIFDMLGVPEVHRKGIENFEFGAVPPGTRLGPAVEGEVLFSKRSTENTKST

[11] = Counterscreen for inhibitors of Trypanosoma brucei methionyl tRNA synthetase (MetRS): Luminescence-based cell-based high throughput dose response assay to identify compounds that are cytotoxic to Jurkat human T lymphocyte cells.; type: functional
[12] = biological target: T3, Methionyl-tRNA synthetase, putative; type: functional, Trypanosoma brucei brucei strain 927/4 GUTat10.1; remark: listed apart in the source
[13] = Luminescence Cell-Based Dose Retest to Confirm Inhibitors of Cancer Stem Cells. [Related pubchem assays (depositor defined):AID2717, AID2721]; type: functional; details: Homo sapiens
[14] = biological target: T4, Bcl-2-related protein A1 (Mus musculus, UniProt Q07440); type: functional;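 also: confirmatory dose–response counterscreen on Bfl-1, used to check hits from a UBC13 polyubiquitin inhibitor campaign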
T4 sequence (Q07440 whole entry): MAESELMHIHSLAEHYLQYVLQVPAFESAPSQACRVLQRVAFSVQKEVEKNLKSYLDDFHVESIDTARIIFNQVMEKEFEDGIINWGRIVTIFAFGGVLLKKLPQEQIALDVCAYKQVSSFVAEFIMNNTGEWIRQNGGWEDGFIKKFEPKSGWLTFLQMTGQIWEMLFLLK

[15] = biological target: T1, Ubiquitin-conjugating enzyme E2 N; type: functional; remark: listed apart in the source
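For AC50 in this document: cells exposed to compound for roughly 70 hours or longer before luminescence read.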

| Compound | CC50 [1] | CC50 [2] | IC50 [3] | CC50 [4] | IC50 [5] | EC50 [6] | EC50 [7] | IC50 [8] | EC50 [9] | IC50 [10] | IC50 [11] | IC50 [12] | AC50 [13] | IC50 [14] | IC50 [15] |
| --- | --- | --- | --- | --- | --- | --- | --- | --- | --- | --- | --- | --- | --- | --- | --- |
| Cc1c(CN2CCC(CO)(CCOc3ccccc3)CC2)[nH]c2ccc(Cl)cc12 | 17.9 µM (active) | 15.1 µM (active) | > 20 µM (inactive) | 16.8 µM (active) | 8.32 µM (active) | > 54.7 µM (inactive) | 15.9 µM (inactive) | 28.3 µM (inactive) | > 54.7 µM (inactive) | 38.8 µM (inactive) | 25.8 µM (inactive) | 64.4 µM (inactive) |  |  |  |
| FC(F)(F)c1cc(CCN2CCNC[C@H]2Cc2cccc3ccccc23)cc(C(F)(F)F)c1 |  |  | 11.7 µM (active) |  |  | > 54.7 µM (inactive) | 11.1 µM (inactive) | 10.1 µM (inactive) | > 55.9 µM (inactive) |  |  |  | 3.37 µM (active) | > 20 µM (inactive) | 9.82 µM (active) |
